Literature values, collected in patent US10863739B2 (AgroFresh Inc., priority 2015, dated 2020).

Conditions: gas

For CC1=CC1 [1-MCP, 1-Methylcyclopropene], the “flammable above a concentration” value is listed as > 13,300 ppm.
